Source: patent US20050245463A1, “Novel antiretroviral sulfolipids extracted from spirulinae, method for obtaining same, compositions containing same and use thereof as inhibitors of the hiv virus reverse transcriptase” (priority 2002, published 2005)
pIC50: −log10 of the molar value. ≈ marks a conversion by molar mass, not a printed value.

Key:
Assay type in all cases: biochemical
[1] = biological target: T1, RNase-H of HIV-1 reverse transcriptase (Human immunodeficiency virus type 1 group M subtype B, UniProt P03366); assay: Inhibition of the RNase-H of HIV-1 reverse transcriptase; conditions: for RNase-H % of initial enzymatic activity: 100 μM of each sulfolipid molecular species, residual activity as % of control without inhibitor; for inhibition of the RNase-H of HIV-1 reverse transcriptase (in words): ranking among molecular species
T1 construct: The HIV-1 and HIV-2 reverse transcriptases are the hetero-dimers p.66/p.5 l and p.68/p.55, respectively; made in house; host or cells: E. coli
Procedure: (§1) The reverse transcriptases used in this study are the recombinant enzymes expressed in E. coli and purified from the bacterial extracts (16). The HIV-1 reverse transcriptase expression plasmid originates from the proviral isolate BH-10 (17), while the HIV-2 reverse transcriptase expression plasmid originates from the isolate pRod (18). The HIV-1 and HIV-2 reverse transcriptases are the hetero-dimers p.66/p.5 l and p.68/p.55, respectively.
(§2) The enzymatic tests are performed by the method of Loya et al. (19). The DNA polymerase activity is measured by monitoring the incorporation of […] into the product insoluble in trichloroacetic acid (TCA), in the presence of different concentrations of sulfolipids. The RNase-H activity is measured by measuring the delivery of the TCA-soluble product from the synthetic substrate [^3H]poly(rA)n.poly (dT)n. This substrate is prepared by the procedure of Hizi et al. (1991) (20). In all the inhibition experiments, the enzymes are preincubated for 5 min at 30° C. in the absence or presence of inhibitors at different concentrations. The enzymatic reactions are started by the addition of appropriate substrate at 37° C. for 30 min.
(§3) The residual enzymatic activity is calculated relative to the initial rates of the (linear) reaction observed in the absence of sulfolipids.
(b) One unit of RNase-H activity is the amount of enzyme which catalyzes the hydrolysis of one pmol of AMP at 37° C. over 30 min under standard test conditions.

[2] = biological target: T2, DNA polymerase of HIV-1 reverse transcriptase (Human immunodeficiency virus type 1 group M subtype B, UniProt P03366); assay: Inhibition of the DNA polymerase of HIV-1 reverse transcriptase; conditions: for pIC50: concentration that inhibits 50% of the initial enzymatic activity; for IC90: concentration that inhibits 90% of the initial enzymatic activity; for inhibitory activity towards the DNA polymerase of HIV-1 reverse transcriptase (in words): ranking among molecular species
T2 construct: The HIV-1 and HIV-2 reverse transcriptases are the hetero-dimers p.66/p.5 l and p.68/p.55, respectively; made in house; host or cells: E. coli
Procedure: as §1, §2, §3
The concentration of inhibitors that leads to 50% inhibition of the enzymatic activities (IC50) is calculated from the curves of inhibition as a function of inhibitor (sulfolipid) concentration.
(§4) (a) One unit of DNA polymerase activity is the amount of enzyme which catalyzes the incorporation of one pmol of dNTP into the DNA product at 37° C. over 30 min under standard test conditions.

[3] = biological target: T3, DNA polymerase activity of HIV-2 reverse transcriptase (Human immunodeficiency virus type 2 subtype A, UniProt P04584); assay: DNA polymerase activity of HIV-2 reverse transcriptase
T3 construct: The HIV-1 and HIV-2 reverse transcriptases are the hetero-dimers p.66/p.5 l and p.68/p.55, respectively; made in house; host or cells: E. coli
Procedure: as §1, §2, §3, §4

T3 sequence (P04584 613-1051): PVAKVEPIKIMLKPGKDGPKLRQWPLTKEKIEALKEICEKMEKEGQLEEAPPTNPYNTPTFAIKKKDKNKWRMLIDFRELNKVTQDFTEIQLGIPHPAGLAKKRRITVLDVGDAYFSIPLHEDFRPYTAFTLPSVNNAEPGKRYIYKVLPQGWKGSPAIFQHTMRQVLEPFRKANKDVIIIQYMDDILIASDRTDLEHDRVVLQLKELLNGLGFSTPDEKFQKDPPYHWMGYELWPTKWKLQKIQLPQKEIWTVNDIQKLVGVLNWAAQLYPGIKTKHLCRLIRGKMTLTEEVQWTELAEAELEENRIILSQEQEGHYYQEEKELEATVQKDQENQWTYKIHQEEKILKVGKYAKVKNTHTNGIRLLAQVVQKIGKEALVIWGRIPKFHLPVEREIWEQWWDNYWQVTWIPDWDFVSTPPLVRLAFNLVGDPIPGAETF
T3 sequence (P04584 613-1171): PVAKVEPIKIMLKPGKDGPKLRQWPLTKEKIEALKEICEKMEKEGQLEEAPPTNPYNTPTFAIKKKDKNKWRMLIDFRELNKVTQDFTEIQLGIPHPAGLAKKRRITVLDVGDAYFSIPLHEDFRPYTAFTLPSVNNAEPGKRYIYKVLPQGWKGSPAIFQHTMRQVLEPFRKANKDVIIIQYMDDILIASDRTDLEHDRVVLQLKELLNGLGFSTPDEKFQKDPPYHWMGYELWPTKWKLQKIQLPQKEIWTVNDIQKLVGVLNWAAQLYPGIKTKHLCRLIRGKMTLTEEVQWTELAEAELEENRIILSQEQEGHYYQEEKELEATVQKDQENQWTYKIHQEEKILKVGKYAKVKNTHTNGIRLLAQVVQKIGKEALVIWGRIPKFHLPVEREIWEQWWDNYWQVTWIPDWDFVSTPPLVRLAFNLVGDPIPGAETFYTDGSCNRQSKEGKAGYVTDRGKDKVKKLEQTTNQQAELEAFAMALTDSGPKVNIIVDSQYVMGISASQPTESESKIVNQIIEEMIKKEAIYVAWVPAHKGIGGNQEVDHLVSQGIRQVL

CCCCCCCCCCCCCCCC(=O)OCC(COC1OC(CS(=O)(=O)O)C(O)C(O)C1O)OC(=O)CCCCCCCCCCCCCCC (stereo not shown) [C16:0/C16:0]
RNase-H % of initial enzymatic activity [1]: 47 + 4%
inhibition of the RNase-H of HIV-1 reverse transcriptase (in words) [1]: highest activities
pIC50 [2]: 3.87
IC90 [2]: 452 µg/mL (≈ 568 µM)

CCCCCC=CCC=CCC=CCCCCC(=O)OCC(COC1OC(CS(=O)(=O)O)C(O)C(O)C1O)OC(=O)CCCCCCCCCCCCCCC (stereo not shown) [γC18:3/C16:0]
RNase-H % of initial enzymatic activity [1]: 100%
pIC50 [2]: 3.66
IC90 [2]: 533 µg/mL (≈ 652 µM)

CCCCCC=CCC=CCCCCCCCC(=O)OCC(COC1OC(CS(=O)(=O)O)C(O)C(O)C1O)OC(=O)CCCCCCCC=CCC=CCCCCC (stereo not shown) [C18:2/C18:2]
RNase-H % of initial enzymatic activity [1]: 100%
pIC50 [2]: 3.48
IC90 [2]: 840 µg/mL (≈ 996 µM)

CCCCCCC=CCCCCCCCC(=O)OCC(COC1OC(CS(=O)(=O)O)C(O)C(O)C1O)OC(=O)CCCCCCCCCCCCCCC (stereo not shown) [C16:1/C16:0]
RNase-H % of initial enzymatic activity [1]: 42 + 3%
inhibition of the RNase-H of HIV-1 reverse transcriptase (in words) [1]: highest activities
Residual enzymatic activity (%) ([3]; 10.2 + 0.5 μg/ml): 100 + 1%
Residual enzymatic activity (%) ([3]; 25.0 + 0.6 μg/ml): 96 + 1%
Residual enzymatic activity (%) ([3]; 48.9 + 0.9 μg/ml): 69 + 1%
Residual enzymatic activity (%) ([3]; 97.5 + 1.5 μg/ml): 58 + 2%
Residual enzymatic activity (%) ([3]; 108.0 + 3.0 μg/ml): 50 + 1%
Residual enzymatic activity (%) ([3]; 198.5 + 3.4 μg/ml): 24 + 2%
pIC50 [2]: 3.96
IC90 [2]: 302 µg/mL (≈ 381 µM)

CCCCCC=CCC=CCCCCCCCC(=O)OCC(COC1OC(CS(=O)(=O)O)C(O)C(O)C1O)OC(=O)CCCCCCCC=CCCCCCCCC (stereo not shown) [C18:2/C18:1]
RNase-H % of initial enzymatic activity [1]: 100%
pIC50 [2]: 3.53
IC90 [2]: 753 µg/mL (≈ 891 µM)

CCCCCC=CCC=CCCCCCCCC(=O)OC(COC(=O)CCCCCCCC=CCCCCCCCC)COC1OC(CS(=O)(=O)O)C(O)C(O)C1O (stereo not shown) [C18:1/C18:2]
RNase-H % of initial enzymatic activity [1]: 100%
pIC50 [2]: 3.61
IC90 [2]: 628 µg/mL (≈ 743 µM)

CCCCCC=CCC=CCCCCCCCC(=O)OCC(COC1OC(CS(=O)(=O)O)C(O)C(O)C1O)OC(=O)CCCCCCCCCCCCCCC (stereo not shown) [C18:2/C16:0]
RNase-H % of initial enzymatic activity [1]: 100%
inhibitory activity towards the DNA polymerase activity of HIV-2 reverse transcriptase (in words) [3]: have an inhibitory activity
Residual enzymatic activity (%) ([3]; 9.5 + 0.9 μg/ml): 100 + 1%
Residual enzymatic activity (%) ([3]; 23.8 + 0.9 μg/ml): 96 + 2%
Residual enzymatic activity (%) ([3]; 47.7 + 1.8 μg/ml): 70 + 2%
Residual enzymatic activity (%) ([3]; 95.4 + 2.0 μg/ml): 56 + 2%
Residual enzymatic activity (%) ([3]; 105.0 + 5.0 μg/ml): 50 + 1%
Residual enzymatic activity (%) ([3]; 190.8 + 4.8 μg/ml): 25 + 2%
pIC50 [2]: 4.04
IC90 [2]: 281 µg/mL (≈ 344 µM)
inhibitory activity towards the DNA polymerase of HIV-1 reverse transcriptase (in words) [2]: highest activities

CCCCCCCCC=CCCCCCCCC(=O)OCC(COC1OC(CS(=O)(=O)O)C(O)C(O)C1O)OC(=O)CCCCCCCC=CCCCCCCCC (stereo not shown) [C18:1/C18:1]
RNase-H % of initial enzymatic activity [1]: 60 + 2%
inhibition of the RNase-H of HIV-1 reverse transcriptase (in words) [1]: highest activities
inhibitory activity towards the DNA polymerase activity of HIV-2 reverse transcriptase (in words) [3]: the highest
Residual enzymatic activity (%) ([3]; 4.0 + 0.5 μg/ml): 100 + 1%
Residual enzymatic activity (%) ([3]; 8.0 + 0.6 μg/ml): 92 + 1%
Residual enzymatic activity (%) ([3]; 16.0 + 0.7 μg/ml): 70 + 2%
Residual enzymatic activity (%) ([3]; 26.1 + 1.8 μg/ml): 50 + 1%
Residual enzymatic activity (%) ([3]; 36.0 + 1.0 μg/ml): 35 + 1%
Residual enzymatic activity (%) ([3]; 71.9 + 1.0 μg/ml): 22 + 2%
pIC50 [2]: 4.62
IC90 [2]: 68.3 µg/mL (≈ 80.6 µM)
inhibitory activity towards the DNA polymerase of HIV-1 reverse transcriptase (in words) [2]: highest activities

CCCCCCCCC=CCCCCCCCC(=O)OCC(COC1OC(CS(=O)(=O)O)C(O)C(O)C1O)OC(=O)CCCCCCCCCCCCCCC (stereo not shown) [C18:1/C16:0]
RNase-H % of initial enzymatic activity [1]: 64 + 6%
inhibition of the RNase-H of HIV-1 reverse transcriptase (in words) [1]: highest activities
inhibitory activity towards the DNA polymerase activity of HIV-2 reverse transcriptase (in words) [3]: have an inhibitory activity
Residual enzymatic activity (%) ([3]; 4.8 + 0.9 μg/ml): 100 + 1%
Residual enzymatic activity (%) ([3]; 9.6 + 0.9 μg/ml): 93 + 2%
Residual enzymatic activity (%) ([3]; 19.1 + 0.9 μg/ml): 74 + 2%
Residual enzymatic activity (%) ([3]; 33.5 + 2.0 μg/ml): 50 + 1%
Residual enzymatic activity (%) ([3]; 38.3 + 1.8 μg/ml): 42 + 2%
Residual enzymatic activity (%) ([3]; 76.5 + 2.0 μg/ml): 24 + 2%
pIC50 [2]: 4.54
IC90 [2]: 73.6 µg/mL (≈ 89.6 µM)
inhibitory activity towards the DNA polymerase of HIV-1 reverse transcriptase (in words) [2]: highest activities
